Tested on: BALB/cJW mice
Test: Delayed-type hypersensitivity (DTH) reaction, mouse ear swelling
Type: in vivo
Method: The anti-inflammatory and anti-allergic effects of compound 1a was assessed in a mouse model of skin delayed-type hypersensitivity (DTH) reactions and compared to a vehicle control and to the reference drug dexamethasone. DTH reactions are antigen-specific cell-mediated immune responses, driven primarily by T helper type 1 (Th1) cells, similar to the tuberculin immunization response. The immune reaction induced by an ovalbumin challenge to animals previously sensitized with ovalbumin in Complete Freund's Adjuvant, is characterized by swelling (edema) at the site of challenge, e.g. the mouse ear. Dexamethasone, an anti-inflammatory steroid, reduces cell-mediated immune responses and was employed to validate the responsiveness of the assay to pharmacological treatment.
Female BALB/cJW mice were bred at the University of Lodz, Lodz, Poland and housed in groups of 8 in makrolon cages with a 12 h light-dark cycle. Mice were given free access to food (Agropol S. j., Motycz, Poland) and water.
Group size was n=8 mice unless otherwise stated. Test compound was freshly prepared before administration.
Sensitization: The protein antigen, ovalbumin, was reconstituted in PBS at 4 mg/ml. […] The emulsion was tested by putting a drop of emulsion onto PBS; if the emulsion remained as a light droplet on the PBS, the emulsion was deemed ready. […]
Challenge: On the sixth day after sensitization, DTH was elicited by challenging animals subcutaneously (gauge 30 needle, B. Braun Melsungen, Melsungen, Germany) in the left ears with 10 μL of a 1% suspension of heat-aggregated ovalbumin (HOVA) (100 μg ovalbumin per mouse). […] Ear thickness was measured with a precise spring-loaded caliper (Art. No, 7309, Mltutoyo, Kawasaki, Japan) before challenge, and 24 h after challenge. […]
To account for individual variability, the increase in right ear thickness, before and 24 h after administration of PBS, was subtracted from the HOVA-induced increase in left ear thickness. The increase in ear thickness was calculated by the difference between ear thickness before and 24 h after antigen challenge. […]

CCCCCCCCCCCCCC[N+](C)(C)CCCS(=O)(=O)[O-] [Compound 1a, 3-(N,N-Dimethylmyristylammonio)-Propanesulfonate]
Inhibition of DTH response relative to that of a high dose of dexamethasone (1a oral vs dexamethasone 1 mg/kg): 65%
Inhibition of mouse ear swelling (DTH response) (oral, 1a 100 mg/kg (loading dose, then maintenance doses), dexamethasone 1.0 mg/kg once daily, 24 h after ovalbumin challenge): 32%

Source: US10829506B2, “Amino- or ammonium-containing sulfonic acid, phosphonic acid and carboxylic acid derivatives and their medical use” (GRI Bio, Inc., priority 2011, dated 2020)
